Laboratory results reported in patent US20050142080A1, “Cosmetic or dermatological light protection formulation with a benzoxazole derivative” (Beiersdorf AG, priority 2001, published 2005).

In the case of `CCCCCCC(CO)CCCC` (centres unmarked) [Butyl Octanol], the “σ [mN/m] at 25° C. (surface tension)” value is reported as 26.9 mN/m.

In the case of `CCCCCCCCCCC(CO)CCCCCCCC` (centres unmarked) [Octyldodecanol], the “σ [mN/m] at 25° C. (surface tension)” value is reported as 28.9 mN/m.
